pEC50: −log10 of the molar value.
Molecular target: T1, TLR8 (Homo sapiens, UniProt Q9NR97)
T1 construct: lymphocytes, monocytes and dendritic cells that express TLR7, TLR8 and TLR9; endogenous in cells; host or cells: human PBMCs from healthy donors
T1 sequence (Q9NR97 27-1041): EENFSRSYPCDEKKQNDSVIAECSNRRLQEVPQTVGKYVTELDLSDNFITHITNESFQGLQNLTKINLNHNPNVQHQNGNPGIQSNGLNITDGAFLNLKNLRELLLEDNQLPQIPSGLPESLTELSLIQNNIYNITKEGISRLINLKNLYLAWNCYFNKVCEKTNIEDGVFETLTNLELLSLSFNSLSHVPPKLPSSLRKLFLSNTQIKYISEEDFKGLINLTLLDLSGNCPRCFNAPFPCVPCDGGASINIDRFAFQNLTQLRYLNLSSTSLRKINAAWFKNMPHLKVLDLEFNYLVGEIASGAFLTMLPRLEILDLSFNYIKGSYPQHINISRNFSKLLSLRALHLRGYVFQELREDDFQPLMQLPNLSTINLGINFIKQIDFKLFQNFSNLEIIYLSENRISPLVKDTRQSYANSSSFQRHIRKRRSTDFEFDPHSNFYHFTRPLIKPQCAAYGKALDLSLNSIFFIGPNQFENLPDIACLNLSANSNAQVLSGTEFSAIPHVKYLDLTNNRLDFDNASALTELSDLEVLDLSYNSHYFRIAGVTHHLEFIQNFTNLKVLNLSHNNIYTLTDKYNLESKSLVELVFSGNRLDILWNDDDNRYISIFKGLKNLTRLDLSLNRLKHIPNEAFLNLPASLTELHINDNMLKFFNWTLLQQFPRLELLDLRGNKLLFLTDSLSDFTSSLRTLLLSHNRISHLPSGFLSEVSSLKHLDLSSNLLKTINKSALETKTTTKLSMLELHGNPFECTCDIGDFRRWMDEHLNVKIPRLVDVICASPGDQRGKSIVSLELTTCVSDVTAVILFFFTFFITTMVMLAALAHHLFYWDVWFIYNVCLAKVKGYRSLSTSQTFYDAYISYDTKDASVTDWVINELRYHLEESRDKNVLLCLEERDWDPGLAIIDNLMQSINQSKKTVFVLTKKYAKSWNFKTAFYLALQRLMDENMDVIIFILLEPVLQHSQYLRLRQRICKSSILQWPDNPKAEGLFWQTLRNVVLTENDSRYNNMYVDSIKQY
Test: TLR8 human PBMC cell-based assay, TLR8 agonist Compound A stimulation, cytokine (TNFa and IL12p40) readout
Settings: human PBMCs, Compound A 800 nM, 6 hours; Table 26; read-out: TLR-8 EC50
Protocol: Cryopreserved human PBMCs from healthy donors were thawed and resuspended in RPMI-1640 media with L-glutamine (Corning) supplemented with 10% Fetal Bovine Serum (Hyclone) and 1X Penicillin-Streptomycin (Corning). After counting, the cell density was adjusted to 2 million cells/ml and incubated for 1 hour at 37° C., 5% CO2 for recovery. Following the recovery, the cells were plated by adding 50p per well (100,000 cells) to 384-well cell culture plates (Greiner) containing 250nl of test antagonists in 100% DMSO per well, in a 10 points dose response in quadruplicates. PBMCs were incubated in the presence of antagonists for one hour at 37° C., 5% CO2 before being stimulated with TLR8 agonist. Compound A (Gilead Sciences, U.S. Pat. No. 10,285,990) was used as the TLR8 agonist at a final concentration of 800 nM. PBMCs were incubated in the presence of antagonist and the TLR8 agonist for an additional 6 hours at 37° C., […]. At the end of the incubation, the cell culture plates were centrifuged at 500 g for 5 min, and the cell culture supernatant was collected. The level of cytokines (TNFa and IL12p40) in the supernatant was measured by electrochemiluminescence immunoassays (Mesoscale Discovery) following manufacturer's recommended protocols. The level of cytokine measured was plotted against the antagonist concentration and fitted to a sigmoidal function to determine the EC50, which are shown below in Table 11.

| Structure (SMILES) | pEC50 |
| --- | --- |
| CCc1c(-c2cc(OC)c3ncnn3c2)[nH]c2cc(-c3ccc(N4CCNCC4)nc3)ccc12 [Example 169] | 8.47 |
| Cc1cc(-c2[nH]c3cc(C4CCNCC4)ccc3c2C(C)C)cn2ncnc12 [Example 55] | 8.04 |
| Cc1cc(-c2[nH]c3cc(-c4ccc(N5CCNCC5)nc4)ccc3c2C2CC2)cn(C)c1=O [Example 165] | 8.07 |
| Cc1c(-c2cc(C)c3ncnn3c2)[nH]c2cc(-c3ccc(N4CCNCC4)nc3)ccc12 [Example 71] | 7.45 |
| Cc1cc(-c2[nH]c3cc(-c4ccc(N5CCN(CCO)CC5)nc4)ccc3c2C)cc(C)n1 [Example 37, 2-(4-(5-(2-(2,6-dimethylpyridin-4-yl)-3-methyl-1H-indol-6-yl)pyridin-2-yl)piperazin-1-yl)ethan-1-ol] | 6.20 |
| Cc1cc(-c2[nH]c3cc(-c4ccc(N5CCNCC5)nc4)ccc3c2C)cc(C)n1 [Example 1, 2-(2,6-dimethylpyridin-4-yl)-3-methyl-6-(6-(piperazin-1-yl)pyridin-3-yl)-1H-indole] | 6.11 |
| CCc1c(-c2cc(C)c3ncnn3c2)[nH]c2cc(-c3ccc(N4CCNCC4)nc3)ccc12 [Example 167, 6-(3-ethyl-6-(6-(piperazin-1-yl)pyridin-3-yl)-1H-indol-2-yl)-8-methyl-[1,2,4]triazolo[1,5-a]pyridine] | 8.43 |
| Cc1cc(-c2[nH]c3cc(C4CCNCC4)ccc3c2C)cc(C)n1 [Example 48, 2-(2,6-dimethylpyridin-4-yl)-3-methyl-6-(piperidin-4-yl)-1H-indole] | 6.24 |
